Reference: paper PMC8877724 (Journal of medicinal chemistry, 2020)
“Also recorded” adds a separate entry of the source. Read-outs that look alike come from different tables or passages of the source.

How the values were obtained:
[1] = Reaction with excess cysteamine monitored by 1H NMR; format: physicochemical
[2] = test system: NF-κB signaling in A549 cells bearing a stably transfected NF-κB-driven luciferase reporter gene; experiment: NF-κB luciferase reporter assay, TNF-α induced; format: cell-based; conditions: tested at 5-20 μM, 20 μM the highest concentration tested
[3] = molecular target: T1, La antigen (Homo sapiens, UniProt P05455); conditions: cited from earlier work
T1 sequence (P05455 100-324 limits assumed): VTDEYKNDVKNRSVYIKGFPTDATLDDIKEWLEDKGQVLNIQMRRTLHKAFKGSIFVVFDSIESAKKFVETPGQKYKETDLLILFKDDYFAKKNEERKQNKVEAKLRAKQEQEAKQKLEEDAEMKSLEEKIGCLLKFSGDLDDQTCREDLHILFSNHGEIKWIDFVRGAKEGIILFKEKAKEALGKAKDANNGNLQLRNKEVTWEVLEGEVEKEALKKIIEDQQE

[4] = test system: HEK293/NF-κB-SEAP cells; experiment: Cellular cytotoxicity accompanying the SEAP reporter assay; format: cell-based, human; conditions: 7.5 μM
[5] = test system: A549/NF-κB-luc cells; conditions: 10 μM, A549/NF-κB-luc assay; cited from earlier work
[6] = cited from earlier work
[7] = test system: NF-κB signaling in HEK293 cells containing a stably transfected NF-κB-driven SEAP reporter gene; experiment: NF-κB secreted alkaline phosphatase; format: cell-based, human; conditions: tested at 1-7.5 μM, SEAP reporter assay
[8] = test system: Vero cells; experiment: Vero cell viability assay; format: cell-based, African green monkey; conditions: 48 h

In the case of `C=C1C(=O)N(S(=O)(=O)c2ccc(C)cc2)[C@@H]2C3=C(c4ccccc4)C(=O)CC3=C(C)CC[C@@H]12` (relative stereo) [Compound 54, (3aS*,9bS*)-6-Methyl-3-methylene-9-phenyl-1-tosyl-1,3a,4,5,7,9b-hexahydro-2H-azuleno[4,5-b]pyrrole-2,8(3H)-dione], the “time to complete reaction with cysteamine” value ([1]; cysteamine (15 equiv), CDCl3, rt, disappearance of methylene resonances by 1H NMR) is reported as “less than 10 min”.

In the case of `C=C1C(=O)N(c2ccccc2)[C@@H]2C3=C(c4ccccc4)C(=O)CC3=C(C)CC[C@@H]12` (relative stereo) [Compound 49, (3aS*,9bS*)-6-Methyl-3-methylene-1,9-diphenyl-1,3a,4,5,7,9b-hexahydro-2H-azuleno[4,5-b]pyrrole-2,8(3H)-dione], the “NF-κB inhibition (in words)” value [2] is reported as “no inhibitory activities; also recorded: little NF-κB inhibitory activity; also recorded: no NF-κB inhibition”.

With `C=C1C(=O)N(c2ccc(OC)cc2)[C@@H]2C3=C(c4ccccc4)C(=O)CC3=C(C)CC[C@@H]12` (relative stereo) [Compound 52, (3aS*,9bS*)-1-(4-Methoxyphenyl)-6-methyl-3-methylene-9-phenyl-1,3a,4,5,7,9b-hexahydro-2H-azuleno[4,5-b]pyrrole-2,8(3H)-dione] the “NF-κB inhibition (in words)” value [2] was “no inhibitory activities; also recorded: little NF-κB inhibitory activity; also recorded: no NF-κB inhibition”.

Compound “3-methylene-9-phenyl-3,3a,4,5-tetrahydroazuleno[4,5-b]furan-2,8(7H,9bH)-dione [Compound S17]” has a Half-life ([1]; HSCH2CH2NH2 (15 equiv), CDCl3 (0.006 M), rt) of 7 min.

In the case of `C=CC(=O)N1CCC[C@@H](n2nc(-c3ccc(Oc4ccccc4)cc3)c3c(N)ncnc32)C1` [Ibrutinib], the “ALARM NMR result” value [3] is given as “ALARM NMR negative”.

In the case of `C=C1C(=O)O[C@@H]2[C@H]3O[C@]3(C)CC/C=C(\C)CC[C@@H]12` [PTL, parthenolide], the “cytotoxicity (in words)” value [4] is listed as “moderate level of cytotoxicity”, the “cytotoxicity (in words)” value [5] is listed as “no cytotoxicity” and the “time to complete reaction with cysteamine” value [6] is listed as “less than 5 min”.

With `C=C1C(=O)N[C@@H]2C3=CC(=O)CC3=C(C)CC[C@@H]12` (relative stereo) [Compound 47, (3aS*,9bS*)-6-Methyl-3-methylene-1,3a,4,5,7,9b-hexahydro-2H-azuleno[4,5-b]pyrrole-2,8(3H)-dione] the “NF-κB inhibition (in words)” value [2] was “did not inhibit NF-κB signaling; also recorded: little or no inhibition”, the “NF-κB inhibition (in words)” value [7] was “little or no inhibition” and the “cytotoxicity (in words)” value [8] was “low cytotoxicity”.

For `C=C1C(=O)N[C@@H]2C3=C(c4ccccc4)C(=O)CC3=C(C)CC[C@@H]12` (relative stereo) [Compound 45, (3aS*,9bS*)-6-Methyl-3-methylene-9-phenyl-3,3a,4,5-tetrahydro-1H-azuleno[4,5-b]pyrrole-2,8(7H,9bH)-dione], the “NF-κB inhibition (in words)” value [2] was “did not inhibit NF-κB signaling; also recorded: no NF-κB inhibition”.

In the case of `C=C1C(=O)N(C)[C@@H]2C3=C(c4ccccc4)C(=O)CC3=C(C)CC[C@@H]12` (relative stereo) [Compound 48, (3aS*,9bS*)-1,6-Dimethyl-3-methylene-9-phenyl-1,3a,4,5,7,9b-hexahydro-2H-azuleno[4,5-b]pyrrole-2,8(3H)-dione], the “NF-κB inhibition (in words)” value [2] is reported as “no inhibitory activities”.
